Test results from patent publication US20020137929A1, “1 - (3-heterocyclylphenyl) isothiourea, -isourea, -guanidine and -amidine herbicidal agents” (Intellectual Property Department, BASF Aktiengesellschaft, priority 1998, published 2002).

Legend:
[1] = system: AMBEL (Ragweed, Common); experiment: Preemergence herbicidal evaluation; type: in vivo, Ambrosia artemisifolia; conditions: rated 4-5 weeks after treatment
Method in brief: (§1)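 Test compound, dissolved in aqueous acetone, was sprayed over planted soil cups at an equivalent of about 0.0156 to 0.500 kg/ha; seeds had been mixed with potting soil. Greenhouse growth followed, with visual 0-9 scoring of injury at four to five weeks.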

[2] = system: ZEAMX (Corn, Field); experiment: Postemergence herbicidal evaluation; type: in vivo, Zea mays; conditions: for ZEAMX herbicidal rating: postemergence
Method in brief: (§2)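 Young plants, roughly two weeks from seeding, receive the active ingredient as a sprayed dispersion (acetone/water 50/50, 0.5% TWEEN 20) at 40 psi. Doses span about 0.0156 to 0.500 kg/ha. A visual score from 0 to 9 compares treated with control plants four to five weeks on.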

[3] = system: CYPSE (Flatsedge); experiment: Preemergence weed control under flooded paddy conditions; type: in vivo, Cyperus serotinus; conditions: rated 3-4 weeks after treatment
Method in brief: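 Seeds or propagules sown in silt loam kept flooded 1.5-3 cm; compounds in 50/50 acetone/water pipetted into flood water at about 0.0313 to 0.500 kg/ha. Greenhouse; visual 0-9 rating versus untreated control 3-4 weeks after treatment.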

[4] = system: ECHCG (Barnyardgrass); experiment: Preemergence herbicidal evaluation; type: in vivo, Echinochloa crus-galli; conditions: rated 4-5 weeks after treatment
Method in brief: as §1

[5] = system: CYPIR (Rice Flatsedge); experiment: Postemergence weed control under flooded paddy conditions; type: in vivo, Cyperus iria; conditions: postemergence weeds
Method in brief: (§3)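 Herbicidal effect is judged by eye on a 0–9 scale versus control, 3–4 weeks after dosing. Dosing is into flood water kept 1.5–3 cm over the soil, at about 0.0313–0.500 kg/ha in aqueous/acetone 50/50 v/v, on 3–5 cm weeds and 1.5–2.5-leaf rice seedlings.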

[6] = system: ABUTH (Velvetleaf); experiment: Postemergence herbicidal evaluation; type: in vivo, Abutilon theophrasti; conditions: for ABUTH herbicidal rating: postemergence
Method in brief: as §2

[7] = system: ABUTH (Velvetleaf); experiment: Preemergence herbicidal evaluation; type: in vivo, Abutilon theophrasti; conditions: rated 4-5 weeks after treatment
Method in brief: as §1

[8] = system: ECHORC (Watergrass (Calif.)); experiment: Preemergence weed control under flooded paddy conditions; type: in vivo, Echinochloa oryzoides; conditions: rated 3-4 weeks after treatment
Method in brief: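 Herbicidal effect is scored visually on a 0-9 scale against an untreated control, three to four weeks after compounds are pipetted into the flood water (1.5 to 3 cm deep) over seeds planted in silt loam at 0.5 cm depth. Rates: about 0.0313 to 0.500 kg/ha.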

[9] = system: IPOHE (Morningglory, Ivyleaf); experiment: Postemergence herbicidal evaluation; type: in vivo, Ipomoea hederacea; conditions: for IPOHE herbicidal rating: postemergence
Method in brief: as §2

[10] = system: CASOB (Sicklepod); experiment: Preemergence herbicidal evaluation; type: in vivo, Cassia obtusifolia; conditions: rated 4-5 weeks after treatment
Method in brief: as §1

[11] = system: GLXMAW (Soybean, Williams); experiment: Postemergence herbicidal evaluation; type: in vivo, Glycine max, (L.) Merr. cv Williams; conditions: for GLXMAW herbicidal rating: postemergence
Method in brief: as §2

[12] = system: SETVI (Foxtail, Green); experiment: Postemergence herbicidal evaluation; type: in vivo, Setaria viridis; conditions: for SETVI herbicidal rating: postemergence
Method in brief: as §2

[13] = system: ECHORC (Watergrass (Calif.)); experiment: Postemergence weed control under flooded paddy conditions; type: in vivo, Echinochloa oryzoides; conditions: postemergence weeds
Method in brief: as §3

[14] = system: IPOHE (Morningglory, Ivyleaf); experiment: Preemergence herbicidal evaluation; type: in vivo, Ipomoea hederacea; conditions: rated 4-5 weeks after treatment
Method in brief: as §1

[15] = Rate 0.1250 kg/ha, rated 3 to 4 weeks after treatment
[16] = Rate 0.2500 kg/ha, rated 3 to 4 weeks after treatment
[17] = rate 0.0313 kg/ha, 3-4 weeks after treatment
[18] = rate 0.0625 kg/ha, 3-4 weeks after treatment
[19] = rate 0.1250 kg/ha, 3-4 weeks after treatment
[20] = rate 0.2500 kg/ha, 3-4 weeks after treatment

Structure (SMILES): Cn1c(C(F)(F)F)cc(=O)n(-c2cc(N=C3SCC(=O)N3C3CCOC3=O)c(Cl)cc2F)c1=O (centres unmarked) [Compound 73]
- Preemergence herbicidal rating AMBEL ([1]; rate 0.0156 kg/ha): 1.0
- Preemergence herbicidal rating AMBEL ([1]; rate 0.0313 kg/ha): 0.0
- Preemergence herbicidal rating AMBEL ([1]; rate 0.0625 kg/ha): 4.0
- Preemergence herbicidal rating AMBEL ([1]; rate 0.1250 kg/ha): 9.0
- Preemergence herbicidal rating AMBEL ([1]; rate 0.2500 kg/ha): 9.0
- ZEAMX herbicidal rating ([2]; rate 0.0158 kg/ha): 4.5
- ZEAMX herbicidal rating ([2]; rate 0.0315 kg/ha): 4.5
- ZEAMX herbicidal rating ([2]; rate 0.0630 kg/ha): 5.0
- CYPSE herbicidal effect rating ([3]; 0.1250 kg/ha): 2.0
- CYPSE herbicidal effect rating ([3]; 0.2500 kg/ha): 4.0
- Preemergence herbicidal rating ECHCG ([4]; rate 0.0156 kg/ha): 0.0
- Preemergence herbicidal rating ECHCG ([4]; rate 0.0313 kg/ha): 0.0
- Preemergence herbicidal rating ECHCG ([4]; rate 0.0625 kg/ha): 0.0
- Preemergence herbicidal rating ECHCG ([4]; rate 0.1250 kg/ha): 0.0
- Preemergence herbicidal rating ECHCG ([4]; rate 0.2500 kg/ha): 4.0
- Herbicidal rating CYPIR [5, 15]: 0.0
- Herbicidal rating CYPIR [5, 16]: 6.0
- ABUTH herbicidal rating ([6]; rate 0.0158 kg/ha): 9.0
- ABUTH herbicidal rating ([6]; rate 0.0315 kg/ha): 9.0
- ABUTH herbicidal rating ([6]; rate 0.0630 kg/ha): 9.0
- Preemergence herbicidal rating ABUTH ([7]; rate 0.0156 kg/ha): 9.0
- Preemergence herbicidal rating ABUTH ([7]; rate 0.0313 kg/ha): 9.0
- Preemergence herbicidal rating ABUTH ([7]; rate 0.0625 kg/ha): 9.0
- Preemergence herbicidal rating ABUTH ([7]; rate 0.1250 kg/ha): 9.0
- Preemergence herbicidal rating ABUTH ([7]; rate 0.2500 kg/ha): 9.0
- ECHORC herbicidal effect rating ([8]; 0.1250 kg/ha): 3.0
- ECHORC herbicidal effect rating ([8]; 0.2500 kg/ha): 7.0
- IPOHE herbicidal rating ([9]; rate 0.0158 kg/ha): 9.0
- IPOHE herbicidal rating ([9]; rate 0.0315 kg/ha): 9.0
- IPOHE herbicidal rating ([9]; rate 0.0630 kg/ha): 9.0
- Preemergence herbicidal rating CASOB ([10]; rate 0.0313 kg/ha): 0.0
- Preemergence herbicidal rating CASOB ([10]; rate 0.0625 kg/ha): 0.0
- Preemergence herbicidal rating CASOB ([10]; rate 0.1250 kg/ha): 1.0
- Preemergence herbicidal rating CASOB ([10]; rate 0.2500 kg/ha): 2.0
- GLXMAW herbicidal rating ([11]; rate 0.0158 kg/ha): 6.0
- GLXMAW herbicidal rating ([11]; rate 0.0315 kg/ha): 5.5
- GLXMAW herbicidal rating ([11]; rate 0.0630 kg/ha): 7.5
- SETVI herbicidal rating ([12]; rate 0.0158 kg/ha): 1.0
- SETVI herbicidal rating ([12]; rate 0.0315 kg/ha): 2.0
- SETVI herbicidal rating ([12]; rate 0.0630 kg/ha): 7.0
- Herbicidal rating ECHORC [13, 15]: 3.0
- Herbicidal rating ECHORC [13, 16]: 7.0
- Preemergence herbicidal rating IPOHE ([14]; rate 0.0156 kg/ha): 0.0
- Preemergence herbicidal rating IPOHE ([14]; rate 0.0313 kg/ha): 1.0
- Preemergence herbicidal rating IPOHE ([14]; rate 0.0625 kg/ha): 0.0
- Preemergence herbicidal rating IPOHE ([14]; rate 0.1250 kg/ha): 1.0
- Preemergence herbicidal rating IPOHE ([14]; rate 0.2500 kg/ha): 7.0

Structure (SMILES): CCOC(=O)CN1CCSC1=Nc1cc(-n2nc(C)n(C(F)F)c2=O)c(F)cc1Cl [Compound 36]
- Preemergence herbicidal rating AMBEL ([1]; rate 0.0625 kg/ha): 0.0
- Preemergence herbicidal rating AMBEL ([1]; rate 0.1250 kg/ha): 0.0
- Preemergence herbicidal rating AMBEL ([1]; rate 0.2500 kg/ha): 9.0
- Postemergence herbicidal rating ZEAMX ([2]; Rate 0.0158 kg/ha): 4.5
- Postemergence herbicidal rating ZEAMX ([2]; Rate 0.0315 kg/ha): 6.0
- Postemergence herbicidal rating ZEAMX ([2]; Rate 0.0630 kg/ha): 7.5
- Herbicidal rating CYPSE ([3]; 0.0313 kg/ha): 0.0
- Herbicidal rating CYPSE ([3]; 0.0625 kg/ha): 0.0
- Herbicidal rating CYPSE ([3]; 0.1250 kg/ha): 2.0
- Herbicidal rating CYPSE ([3]; 0.2500 kg/ha): 4.0
- Preemergence herbicidal rating ECHCG ([4]; rate 0.0625 kg/ha): 0.0
- Preemergence herbicidal rating ECHCG ([4]; rate 0.1250 kg/ha): 2.0
- Preemergence herbicidal rating ECHCG ([4]; rate 0.2500 kg/ha): 6.0
- Herbicidal rating CYPIR [5, 17]: 0.0
- Herbicidal rating CYPIR [5, 18]: 5.0
- Herbicidal rating CYPIR [5, 19]: 5.0
- Herbicidal rating CYPIR [5, 20]: 9.0
- Postemergence herbicidal rating ABUTH ([6]; Rate 0.0158 kg/ha): 9.0
- Postemergence herbicidal rating ABUTH ([6]; Rate 0.0315 kg/ha): 9.0
- Postemergence herbicidal rating ABUTH ([6]; Rate 0.0630 kg/ha): 9.0
- Preemergence herbicidal rating ABUTH ([7]; rate 0.0625 kg/ha): 9.0
- Preemergence herbicidal rating ABUTH ([7]; rate 0.1250 kg/ha): 9.0
- Preemergence herbicidal rating ABUTH ([7]; rate 0.2500 kg/ha): 9.0
- Herbicidal rating ECHORC ([8]; 0.0313 kg/ha): 4.0
- Herbicidal rating ECHORC ([8]; 0.0625 kg/ha): 6.0
- Herbicidal rating ECHORC ([8]; 0.1250 kg/ha): 7.0
- Herbicidal rating ECHORC ([8]; 0.2500 kg/ha): 9.0
- Postemergence herbicidal rating IPOHE ([9]; Rate 0.0158 kg/ha): 9.0
- Postemergence herbicidal rating IPOHE ([9]; Rate 0.0315 kg/ha): 9.0
- Postemergence herbicidal rating IPOHE ([9]; Rate 0.0630 kg/ha): 9.0
- Preemergence herbicidal rating CASOB ([10]; rate 0.0625 kg/ha): 0.0
- Preemergence herbicidal rating CASOB ([10]; rate 0.2500 kg/ha): 0.0
- Postemergence herbicidal rating GLXMAW ([11]; Rate 0.0158 kg/ha): 5.0
- Postemergence herbicidal rating GLXMAW ([11]; Rate 0.0315 kg/ha): 5.5
- Postemergence herbicidal rating GLXMAW ([11]; Rate 0.0630 kg/ha): 8.0
- Postemergence herbicidal rating SETVI ([12]; Rate 0.0158 kg/ha): 3.0
- Postemergence herbicidal rating SETVI ([12]; Rate 0.0315 kg/ha): 9.0
- Postemergence herbicidal rating SETVI ([12]; Rate 0.0630 kg/ha): 9.0
- Herbicidal rating ECHORC [13, 17]: 4.0
- Herbicidal rating ECHORC [13, 18]: 6.0
- Herbicidal rating ECHORC [13, 19]: 7.0
- Herbicidal rating ECHORC [13, 20]: 9.0
- Preemergence herbicidal rating IPOHE ([14]; rate 0.0625 kg/ha): 0.0
- Preemergence herbicidal rating IPOHE ([14]; rate 0.1250 kg/ha): 0.0
- Preemergence herbicidal rating IPOHE ([14]; rate 0.2500 kg/ha): 0.0
